Usually IC50 stands for the concentration that gives 50% inhibition. The term inhibition denotes how much of the control response was suppressed.

34 compounds from patent US5789434A, “Derivatives of substituted 4-biarylbutyric acid as matrix metalloprotease inhibitors” (priority 1995, dated 1998) can be followed below.

Experiment [1] concerns the target T1, MMP-3 (Homo sapiens, UniProt P08254).
T1 construct: Truncated Prostromelysin-257 was expressed in a soluble form in E.coli; made in house; host or cells: E. coli
Briefly: Primary Thiopeptilide MMP-3 Inhibition Assay. The conditions noted are these: for IC50: pH 6.5, 13 nM stromelysin, x (n) = average of n determinations, read-out: MMP-3 Thiopep. IC50; for inhibition at 5 µM: read-out: MMP-3 Thiopep. % inhibition. The experiment is classed as biochemical.
Procedure: Enzyme: recombinant stromelysin expressed in E.coli and purified as described above. […] The protocols for the assay of compounds as stromelysin inhibitors was the same as that used for MMP-9 except that the assay buffer was 50 mM MES, pH 6.5 containing 150 mM NaCl, 10 mM CaCl2, 0.005% Brij, and 1% DMSO.

Experiment [2] addresses T2, MMP-9 (Homo sapiens, UniProt P14780).
T2 construct: from tissue; host or cells: human polymorphonuclear leukocytes (PMN) from whole blood (New York Blood Center), PMA-stimulated supernatant
Briefly: Thiopeptilide MMP-9 Inhibition Assay. The experiment is classed as biochemical. The conditions noted are these: for IC50: pH 6.5, x (n) = average of n determinations, read-out: MMP-9: Thiopep. IC50; for inhibition at 5 µM: read-out: MMP-9: Thiopep. % inhibition.

SMILES strings stand for the structures. Counter-ions that a name gives are not always drawn.

T1 sequence (P08254 100-274 limits assumed): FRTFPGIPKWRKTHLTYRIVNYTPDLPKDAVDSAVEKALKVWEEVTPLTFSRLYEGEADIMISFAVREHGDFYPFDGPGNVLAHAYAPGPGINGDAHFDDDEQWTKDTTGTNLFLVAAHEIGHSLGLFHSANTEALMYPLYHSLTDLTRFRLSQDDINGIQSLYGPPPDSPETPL
T2 sequence (P14780 107-707 limits assumed): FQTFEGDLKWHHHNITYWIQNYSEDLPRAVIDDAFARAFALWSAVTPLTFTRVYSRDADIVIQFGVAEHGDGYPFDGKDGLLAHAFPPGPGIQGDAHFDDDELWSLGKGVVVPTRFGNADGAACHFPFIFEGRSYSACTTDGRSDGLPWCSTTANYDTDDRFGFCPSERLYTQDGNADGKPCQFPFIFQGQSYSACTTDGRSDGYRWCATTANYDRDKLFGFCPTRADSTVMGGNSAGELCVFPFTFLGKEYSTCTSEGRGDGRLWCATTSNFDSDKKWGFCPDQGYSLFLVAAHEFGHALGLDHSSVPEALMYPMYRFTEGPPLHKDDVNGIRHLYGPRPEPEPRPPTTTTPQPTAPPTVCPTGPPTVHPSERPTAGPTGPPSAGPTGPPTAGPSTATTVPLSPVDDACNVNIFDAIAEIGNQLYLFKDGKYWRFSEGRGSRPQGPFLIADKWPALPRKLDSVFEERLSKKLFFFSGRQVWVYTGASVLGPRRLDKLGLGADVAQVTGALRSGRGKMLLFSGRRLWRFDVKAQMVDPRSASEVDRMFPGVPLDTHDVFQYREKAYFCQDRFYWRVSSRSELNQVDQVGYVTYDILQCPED

Regarding `O=C(O)CC(CSc1ccccc1)C(=O)c1ccc(-c2ccc(Cl)cc2)cc1` (stereo not drawn) [Example 257, [1,1'-Biphenyl]-4-butanoic acid, 4'-chloro-γ-oxo-β-[(phenylthio)methyl]-], the IC50 was 0.8 µM in experiment [1] and 2.1 µM in experiment [2]. Regarding `O=C(C[C@H](C[S+]([O-])c1ccccc1)C(=O)O)c1ccc(-c2ccc(Cl)cc2)cc1` (stereo partly drawn) [Example 249, [1,1'-Biphenyl]-4-butanoic acid, 4'-chloro-γ-oxo-α-[(phenylsulfinyl)methyl]-, stereoisomer], the IC50 in experiment [1] was 1.6 µM. Take `O=C(O)CCC(=O)c1ccc(-c2ccccc2F)cc1` [Example 9, [1,1'-Biphenyl]-4-butanoic acid, 2'-fluoro-γ-oxo-, reference compound]: the inhibition at 5 µM turned out to be 0% in experiment [1] and 3% in experiment [2]. Turning to `O=C(CC(CCCc1ccccc1)C(=O)O)c1ccc(-c2cccc(C(F)(F)F)c2)cc1` (stereo not drawn) [Example 81, [1,1'-Biphenyl]-4-butanoic acid, γ-oxo-α-(3-phenylpropyl)-3'-(trifluoromethyl)-], the values for the inhibition at 5 µM in experiment [1] and in experiment [2] were 30% and 12%, respectively. In the case of `CSc1ccc(-c2ccc(C(=O)CC(CCCc3ccccc3)C(=O)O)cc2)cc1` (stereo not drawn) [Example 51, [1,1'-Biphenyl]-4-butanoic acid, 4'-(methylthio)-γ-oxo-α-(3-phenylpropyl)-], the IC50 in experiment [1] was 0.17 µM; in experiment [2], 0.1 µM. With `O=C(C[C@H](C[S+]([O-])c1ccccc1)C(=O)O)c1ccc(-c2ccc(Cl)cc2)cc1` (stereo partly drawn) [Example 248, [1,1'-Biphenyl]-4-butanoic acid, 4'-chloro-γ-oxo-α-[(phenylsulfinyl)methyl]-, stereoisomer], in experiment [1], the concentration for half-maximal inhibition (IC50) was 0.83 µM. Regarding `O=C(O)[C@@H]1CC=CC[C@H]1C(=O)c1ccc(-c2ccc(Cl)cc2)cc1` (relative stereo) [Example 328, 3-Cyclohexene-1-carboxylic acid, 6-[(4'-chloro[1,1'-biphenyl]-4-yl)carbonyl]-, trans-], the inhibition at 5 µM in experiment [1] turned out to be 49%; in experiment [2], 45%. With `O=C(CC(CCCc1ccccc1)C(=O)O)c1ccc(-c2ccc(Cl)c(Cl)c2)cc1` (stereo not drawn) [Example 65, [1,1'-Biphenyl]-4-butanoic acid, 3',4'-dichloro-γ-oxo-α-(3-phenylpropyl)-], the half-inhibitory concentration (IC50) in experiment [1] was found to be 0.84 µM. In experiment [2], the inhibition at 5 µM is 47%.

Turning to `CC(C)CC(CC(=O)c1ccc(Cl)cc1)C(=O)O` (stereo not drawn) [Example 27, Benzenebutanoic acid, 4-chloro-α-(2-methylpropyl)-γ-oxo-, reference compound], the inhibition at 5 µM amounted to 11% in experiment [1] and 15% in experiment [2]. Take `CN(C)c1ccc(-c2ccc(C(=O)CC(CCCc3ccccc3)C(=O)O)cc2)cc1` (stereo not drawn) [Example 60, [1,1'-Biphenyl]-4-butanoic acid, 4'-(dimethylamino)-γ-oxo-α-(3-phenylpropyl)-]: the concentration for half-maximal inhibition (IC50) in experiment [1] came out at 0.6 µM; in experiment [2], 0.18 µM. `CC(CC(=O)c1ccc(-c2ccc(Cl)cc2)cc1)(Sc1ccccc1)C(=O)O` (stereo not drawn) [Example 245, [1,1'-Biphenyl]-4-butanoic acid, 4'-chloro-α-methyl-γ-oxo-α-(phenylthio)-]: in experiment [1], the inhibition at 5 µM came to 55%. Regarding `CCCCCCOc1ccc(-c2ccc(C(=O)CC(CCCc3ccccc3)C(=O)O)cc2)cc1` (stereo not drawn) [Example 88, [1,1'-Biphenyl]-4-butanoic acid, 4'-(hexyloxy)γ-oxo-α-(3-phenylpropyl)-], the 50% inhibitory concentration (IC50) in experiment [1] was determined as 0.168 µM. Moreover, the inhibition at 5 µM in experiment [2] amounted to 30%.

As to `C=C(CC(=O)O)C(=O)c1ccc(-c2ccc(Cl)cc2)cc1` [Example 32, [1,1'-Biphenyl]-4-butanoic acid, 4'-chloro-β-methylene-γ-oxo-, reference compound], in experiment [1], the inhibition at 5 µM amounted to 58%. In addition, in experiment [2], the half-inhibitory concentration (IC50) was found to be 6 µM. Turning to `CNC(=O)[C@@H]1CCCN1C(=O)C(CC(=O)c1ccc(-c2ccc(Cl)cc2)cc1)CC(C)C` (stereo partly drawn) [Example 346, 2-Pyrrolidinecarboxamide, 1-[2-[2-(4'-chloro[1,1'-biphenyl]-4-yl)-2-oxoethyl]-4-metyl-1-oxopentyl]-N-methyl-, (2S)-], the IC50 in experiment [1] is 6 µM. For the same compound, the inhibition at 5 µM in experiment [2] amounted to 34%. In the case of `CCN(CC)CCCC(CC(=O)c1ccc(-c2ccc(Cl)cc2)cc1)C(=O)O` (stereo not drawn) [Example 265, [1,1'-Biphenyl]-4-butanoic acid, 4'-chloro-α-[3-(diethylamino)propyl]-γ-oxo-, trifluoroacetate], in experiment [1], the IC50 was determined as 2.9 µM. Besides, the inhibition at 5 µM in experiment [2] was determined as 42%. `Cc1ccc(-c2ccc(C(=O)CC(CC(C)C)C(=O)O)cc2)cc1` (stereo not drawn) [Example 21, [1,1'-Biphenyl]-4-butanoic acid, 4'-methyl-α-(2-methylpropyl)-γ-oxo-]: the results for the 50% inhibitory concentration (IC50) in experiment [1] and in experiment [2] were 0.75 µM and 1.2 µM, respectively.

For the compound `Cc1ccc(CCCC(CC(=O)c2ccc(-c3ccc(Cl)cc3)cc2)C(=O)O)cc1` (stereo not drawn) [Example 184, [1,1'-Biphenyl]-4-butanoic acid, 4'-chloro-α[3-(4-methylphenyl)propyl]-γ-oxo-], the IC50 in experiment [1] was determined as 0.28 µM. The inhibition at 5 µM in experiment [2] came to 41%.

Consider `CCCC(CC(=O)c1ccc(-c2ccc(Cl)cc2)cc1)C(=O)O` (stereo not drawn) [Example 118, [1,1'-Biphenyl]-4-butanoic acid, 4'-chloro-γ-oxo-α-propyl-], for which the half-maximal inhibitory concentration (IC50) in experiment [1] was determined as 0.44 µM; in experiment [2], 2.2 µM. In the case of `Cc1ccc(SCC(CC(=O)c2ccc(-c3ccc(Cl)cc3)cc2)C(=O)O)cc1` (stereo not drawn) [Example 211, [1,1'-Biphenyl]-4-butanoic acid, 4'-chloro-α-[[(4-methylphenyl)thio]methyl]-γ-oxo-], the IC50 was 0.44 µM in experiment [1] and 0.28 µM in experiment [2]. On to `CC(C)(C)OC(=O)NCc1ccc(-c2ccc(C(=O)CC(CCCc3ccccc3)C(=O)O)cc2)cc1` (stereo not drawn) [Example 49, [1,1'-Biphenyl]-4-butanoic acid, 4'-[[[(1,1-dimethylethoxy)carbonyl]amino]methyl]-γ-oxo-α-(3-phenylpropyl)-], for which the IC50 in experiment [1] was 0.75 µM. For the same compound, in experiment [2], the inhibition at 5 µM is 13%. Consider `O=C(CC(CCCc1ccccc1)C(=O)O)c1ccc(-c2ccc(Cl)cc2)s1` (stereo not drawn) [Example 349, 2-Thiophenebutanoic acid, 5-(4-chlorophenyl)-γ-oxo-α-(3-phenylpropyl)-], for which the concentration for half-maximal inhibition (IC50) turned out to be 0.55 µM in experiment [1] and 0.33 µM in experiment [2].

In the case of `CC(C)(C)C(=O)SCC(CC(=O)c1ccc(-c2ccc(Cl)cc2)cc1)C(=O)O` (single isomer, unassigned) [Example 195, [1,1'-Biphenyl]-4-butanoic acid, 4'-chloro-α-[[(2,2-dimethyl-1-oxopropyl)thio]methyl]-γ-oxo-], the inhibition at 5 µM in experiment [1] amounted to 31%; in experiment [2], 20%. Turning to `O=C(CC(CCCc1ccccc1)P(=O)(O)O)c1ccc(-c2ccc(Br)cc2)cc1` (stereo not drawn) [Example 345, Phosphonic acid, [1-[2-(4'-bromo[1,1'-biphenyl]-4-yl)-2-oxoethyl]-4-phenylbutyl]-], the 50% inhibitory concentration (IC50) in experiment [1] was 5 µM. Moreover, in experiment [2], the inhibition at 5 µM was determined as 30%. With `O=C(CC(CSc1cccc(C(F)(F)F)c1)C(=O)O)c1ccc(-c2ccc(Cl)cc2)cc1` (stereo not drawn) [Example 236, [1,1'-Biphenyl]-4-butanoic acid, 4'-chloro-γ-oxo-α-[[[3-(trifluoromethyl)phenyl]thio]methyl]-], the IC50 in experiment [1] is 2 µM. Regarding `O=C(C[C@@H](CSc1ccccc1)C(=O)O)c1ccc(-c2ccc(Cl)cc2)cc1` [Example 198, 4-[4-(4-chlorophenyl)phenyl]-4-oxo-2R-(phenylthiomethyl)butanoic acid], the inhibition at 5 µM in experiment [2] was determined as 21%.

As to `CCN(CC)CCC(CC(=O)c1ccc(-c2ccc(Cl)cc2)cc1)C(=O)O` (stereo not drawn) [Example 264, [1,1'-Biphenyl]-4-butanoic acid, 4'-chloro-α-[2-(diethylamino)ethyl]-γ-oxo-, hydrochloride], in experiment [1], the inhibition at 5 µM worked out at 48%.

Take `O=C(C[C@@H](C[S+]([O-])c1ccccc1)C(=O)O)c1ccc(-c2ccc(Cl)cc2)cc1` (stereo partly drawn) [Example 246, [1,1'-Biphenyl]-4-butanoic acid, 4'-chloro-γ-oxo-α-[(phenylsulfinyl)methyl]-, stereoisomer]: the inhibition at 5 µM in experiment [1] is 14%. In the case of `COC(=O)c1ccc(SCC(CC(=O)c2ccc(-c3ccc(Cl)cc3)cc2)C(=O)O)cc1` (stereo not drawn) [Example 237, [1,1'-Biphenyl]-4-butanoic acid, 4'-chloro-α-[[[4-(methoxycabonyl)phenyl]thio]methyl]-γ-oxo-], the IC50 in experiment [1] came out at 2 µM. Take `COC(=O)c1ccccc1CCC(CC(=O)c1ccc(-c2ccc(Cl)cc2)cc1)C(=O)O` (stereo not drawn) [Example 142, [1,1'-Biphenyl]-4-butanoic acid, 4'-chloro-α-[2-[2-(methoxycarbonyl)phenyl]ethyl]-γ-oxo-]: the IC50 in experiment [1] was 0.31 µM.

Consider `CC(C)CC1CC(c2ccc(-c3ccc(Cl)cc3)cc2)OC1=O` (stereo not drawn) [Example 35, 2(3H)-Furanone, 5-(4'-chloro[1,1'-biphenyl]-4-yl)dihydro-3-(2-methylpropyl)-, reference compound], for which the inhibition at 5 µM in experiment [1] amounted to 0%. Turning to `CCCCCCCCCCC(CC(=O)c1ccc(-c2ccc(Cl)cc2)cc1)C(=O)O` (stereo not drawn) [Example 123, [1,1'-Biphenyl]-4-butanoic acid, 4'-chloro-α-decyl-γ-oxo-], the inhibition at 5 µM in experiment [1] is 43%. As to `O=C(O)Cc1ccc(SCC(CC(=O)c2ccc(-c3ccc(Cl)cc3)cc2)C(=O)O)cc1` (stereo not drawn) [Example 238, [1,1'-Biphenyl]-4-butanoic acid, α-[[[4-(carboxymethyl)phenyl]thio]methyl]-4'-chloro-γ-oxo-], the IC50 in experiment [1] turned out to be 0.92 µM.

For the compound `CCCCCCCC(CC(=O)c1ccc(-c2ccc(Cl)cc2)cc1)C(=O)O` (stereo not drawn) [Example 122, [1,1'-Biphenyl]-4-butanoic acid, 4'-chloro-α-hepty-γ-oxo-], in experiment [1], the IC50 is 0.403 µM. The same measure, in the same setting: the value for `O=C(CC(CCc1ccccc1I)C(=O)O)c1ccc(-c2ccc(Cl)cc2)cc1` (stereo not drawn) [Example 126, [1,1'-Biphenyl]-4-butanoic acid, 4'-chloro-α-[2-(2-iodophenyl)ethyl]-γ-oxo-] was 0.6 µM.
